# Test results as given in US9435786B2, “Method for determining differentiation level of pluripotent stem cells” (HAMAMATSU PHOTONICS K.K., priority 2012, dated 2016).
# Assays:
# Format in all cases: cell-based
# [1] = tested on: 253G1 iPS cell line derived from a human adult fibroblast; experiment: Flatness of cell surface in a whole visual field, reflection quantitative phase microscope (Example 1); settings: 12.5 μM retinoic acid, cultured another 4 days
# Description: Onto an antireflectively coated glass bottom dish with 35 mm diameter, a 253G1 iPS cell line derived from a human adult fibroblast was seeded at 10 to 20 colonies/dish and cultured on feeder using a Primate ES Medium (manufactured by ReproCELL Incorporated, a commercial name: RCHEMD001) containing 4 ng/mL human basic FGF in the final concentration. The size of one colony was around 200 μn. As the feeder cells, mouse lung fibroblasts were used. The cells were cultured until the third day after the seeding. The medium was replaced once a day. […]
# The shape of the cells was observed using a reflection quantitative phase microscope. […]
# The bottom surface and surface shapes of the cell were extracted as follows. By using a reflection quantitative phase microscope, three-dimensional data for the cells in a 60 μm×80 μm visual field were obtained every 0.125 μm in the horizontal direction and every 0.32 μm in the vertical direction, and from the obtained data, tomogram images were created. […] From the obtained bottom surfaces and surface shapes, the height of the surface of the cells was measured. The flatness was calculated as a standard deviation of height of the surface of the cells which was standardized with a mean value of height of the surface of the cells, and a statistical processing was done.
# [2] = tested on: 253G1 iPS cell line derived from a human adult fibroblast; experiment: Flatness per ROI as standard deviation of height standardized with mean height (Example 2); settings: ROI unit, 12.5 μM retinoic acid
# Description: Onto an antireflectively coated glass bottom dish with 35 mm diameter, a 253G1 iPS cell line derived from a human adult fibroblast was seeded at 10 to 20 colonies/dish and cultured on feeder using a Primate ES Medium (manufactured by ReproCELL Incorporated, a commercial name: RCHEMD001) containing 4 ng/mL human basic FGF in the final concentration. The size of one colony was around 200 μn. As the feeder cells, mouse lung fibroblasts were used. The cells were cultured until the third day after the seeding. The medium was replaced once a day.
# A sample of the iPS cells for differentiation, the medium of which was replaced with a Primate ES Medium containing 4 ng/mL human basic FGF and 12.5 μM retinoic acid in the final concentration on the second day after the seeding, was cultured for another 4 days. Retinoic acid is generally used as a reagent for inducing differentiation. In addition, for a control of differentiated cells, MCF7 cells were used which were human breast cancer-derived epithelial cells. The MCF7 cells were seeded at 20% cell density and cultured for 3 days to be approximately confluent using 10% FBS-containing DMEM medium. In each culture system except the MCF7 cell culture system, the medium was replaced once a day.
# As to 3 colonies of the undifferentiated iPS cells and 3 colonies of the iPS cells cultured by supplementing retinoic acid, 7 to 15 visual fields around the center of each colony were analyzed. Each visual field was partitioned into six ROIs, and the bottom surfaces and surface shapes of the cells were extracted for each ROI unit to measure the height of the surface of the cells under the same condition as that of Example 1. The size of the ROI was […]×23 μm. The flatness was calculated as a standard deviation of height of the surface of the cells which was standardized with a mean value of height of the surface of the cells, and a statistical processing was done to perform Student's t-test.
# [3] = tested on: 253G1 iPS cell line derived from a human adult fibroblast; experiment: Variogram analysis, MSHD standardized with mean height, per ROI (Example 3); settings: Δr 15 μm, ROI unit
# From the text: The flatness may also be a value of MSHD in a predetermined horizontal distance. When a surface shape Z (x, y) is given and two points, A (x1, y1) and B (x2, y2), which are apart from each other at a Δr in the horizontal direction on the Z, are selected, the MSHD can be represented by formula (I). MSHD(Δr)=<(z(x1,y1)−z(x2,y2))^2> (I)
# wherein z (x1, y1) is a height of a surface of the cell at A, z (x2, y2) is a height of a surface of the cell at B, and < > is an ensemble average. In addition, (x1, y1) and (x2, y2) are in any combination that satisfies formula (II). Δr=((x1−x2)^2+(y1−y2)^2)^1/2 (II)
# Under the same condition as that of Example 2, three-dimensional data for the undifferentiated iPS cells and the iPS cells cultured by supplementing retinoic acid were obtained every 0.125 μm in the horizontal direction and every 0.32 μm in the vertical direction, and from the obtained data, tomogram images were created. From the created tomogram images, the bottom surfaces and surface shapes of the cells were extracted and a variogram analysis was performed. Specifically, a value of MSHD when the Δr was within a range of 0.25 μm to 15 μm was calculated from formula (I) as described above, and standardized with a mean value of height of the surface of the cells.
# Next, a value of MSHD when the Δr was […] was calculated and standardized with a mean value of height of the surface of the cells to calculate the flatness. The result was shown as a logarithmic graph (FIG. 6). In a statistical analysis, the common logarithm of the result was calculated to perform Student's t-test (Table 3).
# [4] = tested on: 253G1 iPS cell line derived from a human adult fibroblast; experiment: Slope of variogram as flatness, per ROI (Example 4); settings: Δr 5 μm to 15 μm, ROI unit
# From the text: The flatness may also be a slope of a variogram in a horizontal distance between the predetermined two points. In this case, as the numerical value is smaller, the cell is flatter and less differentiated, and as the numerical value is larger, the cell is less flat and is more differentiated. The horizontal distance between the predetermined two points is not limited in particular, as long as the distance is between points enough to definitely determine the difference between undifferentiated pluripotent stem cell and differentiated cell. The relationship between a mean square height difference and a slope of a variogram can be represented by formula (III). MSHD(Δr)∝Δr^S (III)
# wherein S is a slope of a graph which represents a variogram in a double logarithmic manner. It should be noted that because of the nature of a log-log graph, even when constantly multiplying the abscissa Δr or ordinate MSHD through the standardization, the graph is only translated parallelly and the slope S is constant with respect to the constantly multiplied abscissa and ordinate. In addition, as shown in the above-mentioned document of Glenn, N. et al., it is a known mathematical approach to represent a variogram by log-log graph and evaluate the statistical nature of the surface shape by slope S.
# Under the same condition as that of Example 3, a variogram analysis was performed using a value of MSHD which was standardized with a mean value of height of the surface of the cells, and a slope of the variogram when the Δr was within a range of 5 μm to 15 μm was calculated as the flatness, using formula (III) as described above. Then, a statistical analysis was done to perform Student's t-test.
# [5] = tested on: 253G1 iPS cell line derived from a human adult fibroblast; experiment: Flatness as MSHD per visual field unit (Example 6)
# Description: By using images shot using each sample in Example 2 of one colony (15 visual fields) for the undifferentiated iPS cells and 2 colonies (11 and 13 visual fields, respectively) for the iPS cells cultured by supplementing retinoic acid, the height of the surface of the cells for each visual field unit was measured using a reflection quantitative phase microscope under the same condition as that of Example 2. A value of MSHD when the Δr was 5 μm was calculated and standardized with a mean value of height of the surface of the cells, then the common logarithm was taken and the flatness was calculated. A statistical analysis was done to perform Student's t-test.
structure (smiles),measurement,setting,value
"CC1=C(/C=C/C(C)=C/C=C/C(C)=C/C(=O)O)C(C)(C)CCC1 [Retinoic acid, retinoic acid]",Mean value of height of the surface of the cells,[1]; 60 μm×80 μm visual field,6.25 μm
same,Flatness (standard deviation of height standardized with mean height),"[1]; iPS cells, larger value = less flat",18.9%
same,Flatness (standard deviation of height standardized with mean height),[2]; colony RA-1,0.130
same,Flatness (standard deviation of height standardized with mean height),[2]; colony RA-2,0.107
same,Flatness (standard deviation of height standardized with mean height),[2]; colony RA-3,0.123
same,Flatness (common logarithm of MSHD standardized with mean height),[3]; colony RA-1,−1.392
same,Flatness (common logarithm of MSHD standardized with mean height),[3]; colony RA-2,−1.517
same,Flatness (common logarithm of MSHD standardized with mean height),[3]; colony RA-3,−1.425
same,Flatness (slope of variogram),[4]; colony RA-1,0.848
same,Flatness (slope of variogram),[4]; colony RA-2,0.744
same,Flatness (slope of variogram),[4]; colony RA-3,0.880
same,Flatness (common logarithm of MSHD standardized with mean height),"[5]; colony RA-1, Δr 5 μm",−1.657
same,Flatness (common logarithm of MSHD standardized with mean height),"[5]; colony RA-2, Δr 5 μm",−1.796
